In patent US10112899B2 (ViiV HEALTHCARE UK LIMITED, priority 2014, dated 2018) one finds IC50 data, which are given here for 28 compounds.

The test system of the assay is HIV in the HTLV-1 transformed cell line MT-4. Put plainly: organism not typed. The class given is cell-based. The following applies: MT4, 96 h, MT-4 cells; luciferase/cell titer glo readout after 96 hours; 10 point dose response. (In general: ATP-based viability assays read luminescence as a measure of living cells.)
On to `Cc1c(-c2c(C)c3c(c(C)c2[C@H](OC(C)(C)C)C(=O)O)CN(C(=O)C(=O)N2CCCCC2)C3)cc(F)c2c1CCCO2` (atropisomer, axis not shown; (M)) [Example 215], for which half-maximal inhibition (IC50) required 10 nM.

Regarding `Cc1ccc(-c2c(C)c3c(c(C)c2C(OC(C)(C)C)C(=O)O)CN(CC2CCCCC2)C3)cc1` (stereo not shown) [Example 10, 2-(tert-butoxy)-2-(2-(cyclohexylmethyl)-4,7-dimethyl-6-(p-tolyl)isoindolin-5-yl)acetic acid], the IC50 – broadly, the concentration at which inhibition is half-maximal – is 71 nM.

Turning to `Cc1c(-c2c(C)c3c(c(C)c2[C@H](OC(C)(C)C)C(=O)O)CN(C(=O)c2cc(Cl)c(F)c(Cl)c2)C3)cc(F)c2c1CCCO2` (atropisomer, axis not shown; (M)) [Example 188, (S)-2-(tert-butoxy)-2-((M)-2-(3,5-dichloro-4-fluorobenzoyl)-6-(8-fluoro-5-methylchroman-6-yl)-4,7-dimethylisoindolin-5-yl)acetic acid], the concentration for half-maximal inhibition (IC50) came out at 4 nM.

Compound `Cc1c(-c2c(C)c3c(c(C)c2[C@H](OC(C)(C)C)C(=O)O)CN(C(=O)c2cccc4c2OCC4)C3)cc(F)c2c1CCCO2` (atropisomer, axis not shown; (M)) [Example 152, (S)-2-(tert-butoxy)-2-((M)-2-(2,3-dihydrobenzofuran-7-carbonyl)-6-(8-fluoro-5-methylchroman-6-yl)-4,7-dimethylisoindolin-5-yl)acetic acid] returned a half-inhibitory concentration (IC50) of 2 nM.

In turn, `Cc1ccc(-c2c(C)c3c(c(C)c2[C@H](OC(C)(C)C)C(=O)O)CN(C(=O)c2ccc(F)cc2)C3)cc1` [Example 254, (S)-2-(tert-butoxy)-2-(2-(4-fluorobenzoyl)-4,7-dimethyl-6-(p-tolyl)isoindolin-5-yl)acetic acid] showed an IC50 of 4 nM.

`Cc1c(-c2c(C)c3c(c(C)c2[C@H](OC(C)(C)C)C(=O)O)CN(C(=O)Oc2ccccc2)C3)cc(F)c2c1CCCO2` (atropisomer, axis not shown; (M)) [Example 217, (S)-2-(tert-butoxy)-2-((M)-6-(8-fluoro-5-methylchroman-6-yl)-4,7-dimethyl-2-(phenoxycarbonyl)isoindolin-5-yl)acetic acid]: the 50% inhibitory concentration (IC50) was 12 nM.

Turning to `COc1cncc(C(=O)N2Cc3c(C)c(-c4cc(F)c5c(c4C)CCCO5)c([C@H](OC(C)(C)C)C(=O)O)c(C)c3C2)c1` (atropisomer, axis not shown; (M)) [Example 143, (S)-2-(tert-butoxy)-2-((M)-6-(8-fluoro-5-methylchroman-6-yl)-2-(5-methoxynicotinoyl)-4,7-dimethylisoindolin-5-yl)acetic acid], the midpoint of inhibition, the IC50, lay at 4 nM.

`Cc1c2c(c(C)c([C@H](OC(C)(C)C)C(=O)O)c1-c1ccc3c(c1)CCCO3)CN(C(=O)N1CCC(F)(F)C1)C2` [Example 313, (S)-2-(tert-butoxy)-2-(6-(chroman-6-yl)-2-(3,3-difluoropyrrolidine-1-carbonyl)-4,7-dimethylisoindolin-5-yl)acetic acid]: half-maximal inhibition (IC50) was put at 4 nM.

As to `Cc1ccc(-c2c(C)c3c(c(C)c2[C@H](OC(C)(C)C)C(=O)O)CN(C2CCCC(c4ccccc4)C2)C3)cc1` (stereo partly drawn) [Example 31, (2S)-2-(tert-butoxy)-2-(4,7-dimethyl-2-(3-phenylcyclohexyl)-6-(p-tolyl)isoindolin-5-yl)acetic acid], 203 nM corresponded to half-maximal inhibition (IC50).

The compound `Cc1ccc(-c2c(C)c3c(c(C)c2[C@H](OC(C)(C)C)C(=O)O)CN(C(=O)c2cccc4c2OCCO4)C3)cc1` [Example 105, (S)-2-(tert-butoxy)-2-(2-(2,3-dihydrobenzo[b][1,4]dioxine-5-carbonyl)-4,7-dimethyl-6-(p-tolyl)isoindolin-5-yl)acetic acid] came in with an IC50 of 14 nM.

Regarding `COc1ccc(C)c(C(=O)N2Cc3c(C)c(-c4cc(F)c5c(c4C)CCCO5)c([C@H](OC(C)(C)C)C(=O)O)c(C)c3C2)c1` (atropisomer, axis not shown; (M)) [Example 160, (S)-2-(tert-butoxy)-2-(6-((M)-8-fluoro-5-methylchroman-6-yl)-2-(5-methoxy-2-methylbenzoyl)-4,7-dimethylisoindolin-5-yl)acetic acid], the concentration for half-maximal inhibition (IC50) turned out to be 4 nM.

In turn, `Cc1ccc(-c2c(C)c3c(c(C)c2[C@H](OC(C)(C)C)C(=O)O)CN(CCc2ccccc2)C3)cc1` [Example 39, (2S)-2-(tert-butoxy)-2-[4,7-dimethyl-6-(4-methylphenyl)-2-(2-phenylethyl)-2,3-dihydro-1H-isoindol-5-yl]acetic acid] had a 50% inhibitory concentration (IC50) of 872 nM.

As to `Cc1c(-c2c(C)c3c(c(C)c2[C@H](OC(C)(C)C)C(=O)O)CN(C(=O)c2cccc(F)c2)C3)cc(F)c2c1CCCO2` (atropisomer, axis not shown; (M)) [Example 103, (2S)-2-(tert-butoxy)-2-((M)6-(8-fluoro-5-methylchroman-6-yl)-2-(3-fluorobenzoyl)-4,7-dimethylisoindolin-5-yl)acetic acid], the midpoint of inhibition, the IC50, lay at 2 nM.

Regarding `Cc1ccc(-c2c(C)c3c(c(C)c2[C@H](OC(C)(C)C)C(=O)O)CN(C(=O)N2CCS(=O)(=O)CC2)C3)cc1` [Example 64, (2S)-2-(tert-butoxy)-2-[2-(1,1-dioxo-1λ^6,4-thiomorpholine-4-carbonyl)-4,7-dimethyl-6-(4-methylphenyl)-2,3-dihydro-1H-isoindol-5-yl]acetic acid], the 50% inhibitory concentration (IC50) was found to be 106 nM.

As for `Cc1ccc(-c2c(C)c3c(c(C)c2[C@H](OC(C)(C)C)C(=O)O)CN(C(=O)c2ccc(C(C)(C)C)cc2)C3)cc1` [Example 224, (S)-2-(tert-butoxy)-2-(2-(4-(tert-butyl)benzoyl)-4,7-dimethyl-6-(p-tolyl)isoindolin-5-yl)acetic acid], the half-maximal inhibitory concentration (IC50) was 44 nM.

Compound `Cc1ccc(-c2c(C)c3c(c(C)c2[C@H](OC(C)(C)C)C(=O)O)CN(C(=O)c2cc(Cl)cc(Cl)c2)C3)cc1` [Example 271, (S)-2-(tert-butoxy)-2-(2-(3,5-dichlorobenzoyl)-4,7-dimethyl-6-(p-tolyl)isoindolin-5-yl)acetic acid] yielded a 50% inhibitory concentration (IC50) of 8 nM.

In turn, `Cc1cc(Cl)ccc1-c1c(C)c2c(c(C)c1[C@H](OC(C)(C)C)C(=O)O)CN(C(=O)C1CCCCC1)C2` [Example 324, (2S)-2-(tert-butoxy)-2-(6-(4-chloro-2-methylphenyl)-2-(cyclohexanecarbonyl)-4,7-dimethylisoindolin-5-yl)acetic acid] yielded a half-maximal inhibitory concentration (IC50) of 13 nM.

`Cc1ccc(-c2c(C)c3c(c(C)c2[C@H](OC(C)(C)C)C(=O)O)CN(C(=O)C2CCCCC2)C3)cc1` [Example 107, (S)-2-(tert-butoxy)-2-(2-(cyclohexanecarbonyl)-4,7-dimethyl-6-(p-tolyl)isoindolin-5-yl)acetic acid] yielded an IC50 of 7 nM.

In the case of `Cc1ccc(-c2c(C)c3c(c(C)c2[C@H](OC(C)(C)C)C(=O)O)CN(C(=O)N2CCCC(C)(C)C2)C3)cc1` [Example 93, (S)-2-(tert-butoxy)-2-(2-(3,3-dimethylpiperidine-1-carbonyl)-4,7-dimethyl-6-(p-tolyl)isoindolin-5-yl)acetic acid], the IC50 amounted to 7 nM.

In turn, `Cc1c(-c2c(C)c3c(c(C)c2[C@H](OC(C)(C)C)C(=O)O)CN(C(=O)c2ccccn2)C3)cc(F)c2c1CCCO2` (atropisomer, axis not shown; (M)) [Example 184, (S)-2-(tert-butoxy)-2-((M)-6-(8-fluoro-5-methylchroman-6-yl)-4,7-dimethyl-2-picolinoylisoindolin-5-yl)acetic acid] displayed an IC50 of 2 nM.

The compound `Cc1ccc(-c2c(C)c3c(c(C)c2[C@H](OC(C)(C)C)C(=O)O)CN(Cc2cccc(N4CCOCC4)c2)C3)cc1` [Example 46, (2S)-2-(tert-butoxy)-2-[4,7-dimethyl-6-(4-methylphenyl)-2-{[3-(morpholin-4-yl)phenyl]methyl}-2,3-dihydro-1H-isoindol-5-yl]acetic acid] displayed an IC50 of 4080 nM.

For `Cc1ccc(-c2c(C)c3c(c(C)c2[C@H](OC(C)(C)C)C(=O)O)CN(Cc2cccc(-c4ccccc4)c2)C3)cc1` [Example 29, (S)-2-(2-([1,1′-biphenyl]-3-ylmethyl)-4,7-dimethyl-6-(p-tolyl)isoindolin-5-yl)-2-(tert-butoxy)acetic acid], the midpoint of inhibition, the IC50, lay at 184 nM.

`Cc1ccc(-c2c(C)c3c(c(C)c2[C@H](OC(C)(C)C)C(=O)O)CN(C(=O)c2ccccc2)C3)cc1` [Example 229, (S)-2-(2-benzoyl-4,7-dimethyl-6-(p-tolyl)isoindolin-5-yl)-2-(tert-butoxy)acetic acid] yielded an IC50 of 5 nM.

Turning to `Cc1c(-c2c(C)c3c(c(C)c2[C@H](OC(C)(C)C)C(=O)O)CN(c2nc4ccccc4o2)C3)cc(F)c2c1CCCO2` (atropisomer, axis not shown; (M)) [Example 202, (S)-2-((M)-2-(benzo[d]oxazol-2-yl)-6-(8-fluoro-5-methylchroman-6-yl)-4,7-dimethylisoindolin-5-yl)-2-(tert-butoxy)acetic acid], half-maximal inhibition (IC50) was put at 124 nM.

In the case of `Cc1ccc(-c2c(C)c3c(c(C)c2[C@H](OC(C)(C)C)C(=O)O)CN(S(=O)(=O)c2ccc(F)cc2)C3)cc1` [Example 49, (2S)-2-(tert-butoxy)-2-[2-(4-fluorobenzenesulfonyl)-4,7-dimethyl-6-(4-methylphenyl)-2,3-dihydro-1H-isoindol-5-yl]acetic acid], 100 nM corresponded to half-maximal inhibition (IC50).

For `COc1cccc(C(=O)N2Cc3c(C)c(-c4ccc(C)cc4)c([C@H](OC(C)(C)C)C(=O)O)c(C)c3C2)c1F` [Example 253, (S)-2-(tert-butoxy)-2-(2-(2-fluoro-3-methoxybenzoyl)-4,7-dimethyl-6-(p-tolyl)isoindolin-5-yl)acetic acid], the IC50 is 12 nM.

`COc1ccc(C(=O)N2Cc3c(C)c(-c4cc(F)c5c(c4C)CCCO5)c([C@H](OC(C)(C)C)C(=O)O)c(C)c3C2)cc1F` (atropisomer, axis not shown; (M)) [Example 187, (S)-2-(tert-butoxy)-2-((M)-2-(3-fluoro-4-methoxybenzoyl)-6-(8-fluoro-5-methylchroman-6-yl)-4,7-dimethylisoindolin-5-yl)acetic acid]: the IC50 worked out at 3 nM.

In the case of `Cc1ccc(-c2c(C)c3c(c(C)c2[C@H](OC(C)(C)C)C(=O)O)CN(C(=N)N2CCCCC2)C3)cc1` [Example 128, (S)-2-(tert-butoxy)-2-(2-(imino(piperidin-1-yl)methyl)-4,7-dimethyl-6-(p-tolyl)isoindolin-5-yl)acetic acid], the 50% inhibitory concentration (IC50) came out at 8540 nM.
